Several values for one entry are separate records, joined by “and”; a condition that tells them apart may be missing. Equal values may be shown once. Toxic doses and inconclusive results are not listed. How the source made its calls: active means survival T/C of 150% or more; inactive means T/C below 125% in these data.
System: CD2F1 mice, L1210 leukemia ip, survival T/C
Assay: NCI In Vivo Anticancer Drug Screen. Data for tumor model L1210 Leukemia (intraperitoneal) in CD2F1 (CDF1) mice
Conditions: endpoint: mean survival time, higher = longer survival
In short: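 Mice carrying a transplanted tumor received test compound or vehicle alone. The value is the measurement in the treated group divided by that in the vehicle-treated control group.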

[1] = dose: 100.0 mg/kg/injection, schedule: Q04DX003 (ip), vehicle: saline with Tween-80
[2] = dose: 200.0 mg/kg/injection, schedule: Q01DX009 (ip), vehicle: saline with Tween-80
[3] = dose: 200.0 mg/kg/injection, schedule: Q04DX003 (ip), vehicle: saline with Tween-80
[4] = dose: 400.0 mg/kg/injection, schedule: Q04DX003 (ip), vehicle: saline with Tween-80
[5] = dose: 100.0 mg/kg/injection, schedule: Q01DX001 (ip), vehicle: saline with Tween-80
[6] = dose: 25.0 mg/kg/injection, schedule: Q01DX009 (ip), vehicle: saline with Tween-80
[7] = dose: 50.0 mg/kg/injection, schedule: Q01DX009 (ip), vehicle: saline with Tween-80
[8] = dose: 100.0 mg/kg/injection, schedule: Q01DX009 (ip), vehicle: saline with Tween-80
[9] = dose: 50.0 mg/kg/injection, schedule: Q01DX001 (ip), vehicle: saline
[10] = dose: 100.0 mg/kg/injection, schedule: Q01DX001 (ip), vehicle: saline
[11] = dose: 200.0 mg/kg/injection, schedule: Q01DX001 (ip), vehicle: saline
[12] = dose: 100.0 mg/kg/injection, schedule: Q04DX003 (ip), vehicle: saline
[13] = dose: 200.0 mg/kg/injection, schedule: Q04DX003 (ip), vehicle: saline
[14] = dose: 400.0 mg/kg/injection, schedule: Q04DX003 (ip), vehicle: saline
[15] = dose: 200.0 mg/kg/injection, schedule: Q01DX001 (ip), vehicle: saline with Tween-80
[16] = dose: 100.0 mg/kg/injection, schedule: Q04DX002 (ip), vehicle: saline with Tween-80
[17] = dose: 200.0 mg/kg/injection, schedule: Q04DX002 (ip), vehicle: saline with Tween-80
[18] = dose: 400.0 mg/kg/injection, schedule: Q04DX002 (ip), vehicle: saline with Tween-80

Measured: T/C

COc1cc([C@@H]2c3cc4c(cc3C[C@H]3COC(=O)[C@@H]32)OCO4)cc(OC)c1OC
inactive: dose: 6.25 mg/kg/injection, schedule: Q01DX015 (ip), vehicle: saline 111 % of control | dose: 12.5 mg/kg/injection, schedule: Q01DX015 (ip), vehicle: saline 118 % of control | dose: 25.0 mg/kg/injection, schedule: Q01DX015 (ip), vehicle: saline 106 % of control

O=[N+]([O-])c1ccc(/C=N\N=C\c2ccco2)cc1
inactive: [1] 88 % of control | [2] 86 % of control | [3] 111 % of control | [4] 102 % of control

CC(C)[Si](F)(c1ccc(Br)cc1)C(C)C
inactive: [1] 108 % of control | [3] 106 % of control | [4] 93 % of control

CC1(C)N=C(N)N=C(N)N1c1ccc(OCCCCNC(=O)Nc2ccc(S(=O)(=O)F)cc2)c(Cl)c1
inactive: dose: 25.0 mg/kg/injection, schedule: Q01DX001 (ip), vehicle: saline with Tween-80 101 % of control | dose: 50.0 mg/kg/injection, schedule: Q01DX001 (ip), vehicle: saline with Tween-80 95 % of control | [5] 94 % of control and 95 % of control

O=C(NC1=C(N2CC2)C(=O)C(NC(=O)OCCO)=C(N2CC2)C1=O)OCCO
inactive: dose: 0.18 mg/kg/injection, schedule: Q01DX009 (ip), vehicle: saline 109 % of control and 112 % of control | dose: 0.39 mg/kg/injection, schedule: Q01DX009 (ip), vehicle: saline 113 % of control and 104 % of control | dose: 0.75 mg/kg/injection, schedule: Q01DX009 (ip), vehicle: saline 117 % of control and 120 % of control

CC1CP(c2ccccc2)(c2ccccc2)(c2ccccc2)OC1(C(=O)c1ccccc1)c1ccccc1 (configuration not stated)
inactive: [6] 89 % of control | [1] 91 % of control

CC(=O)c1cc2ccccc2c2ccccc12
inactive: [7] 89 % of control | [8] 97 % of control | [2] 101 % of control

O=c1ccc2nc3cc(Cl)ccc3sc-2c1
inactive: dose: 100.0 mg/kg/injection, schedule: Q04DX003 (ip), vehicle: Klucel (hydroxypropylcellulose) (HPC) 94 % of control | dose: 200.0 mg/kg/injection, schedule: Q04DX003 (ip), vehicle: Klucel (hydroxypropylcellulose) (HPC) 94 % of control | dose: 400.0 mg/kg/injection, schedule: Q04DX003 (ip), vehicle: Klucel (hydroxypropylcellulose) (HPC) 94 % of control

CC(=O)OC1C(CO)OC2C1Oc1nc(=N)c(F)cn12 (configuration not stated)
inactive: dose: 3.13 mg/kg/injection, schedule: Q01DX009 (ip), vehicle: saline 101 % of control | dose: 6.25 mg/kg/injection, schedule: Q01DX009 (ip), vehicle: saline 106 % of control | dose: 12.5 mg/kg/injection, schedule: Q01DX009 (ip), vehicle: saline 110 % of control | dose: 25.0 mg/kg/injection, schedule: Q01DX009 (ip), vehicle: saline 116 % of control

Nc1ncc(C2OC(CO)C(O)C2O)c(N)n1 (configuration not stated)
inactive: dose: 25.0 mg/kg/injection, schedule: Q01DX009 (ip), vehicle: water 91 % of control | dose: 50.0 mg/kg/injection, schedule: Q01DX009 (ip), vehicle: water 100 % of control | dose: 100.0 mg/kg/injection, schedule: Q01DX009 (ip), vehicle: water 95 % of control | dose: 200.0 mg/kg/injection, schedule: Q01DX009 (ip), vehicle: water 88 % of control | dose: 400.0 mg/kg/injection, schedule: Q01DX009 (ip), vehicle: water 91 % of control

CCCCN(C)N=Nc1cccnc1
inactive: dose: 13.0 mg/kg/injection, schedule: Q01DX009 (ip), vehicle: saline 90 % of control | dose: 19.0 mg/kg/injection, schedule: Q01DX009 (ip), vehicle: saline 109 % of control | dose: 28.0 mg/kg/injection, schedule: Q01DX009 (ip), vehicle: saline 109 % of control | dose: 42.0 mg/kg/injection, schedule: Q01DX009 (ip), vehicle: saline 92 % of control

Nc1nc(N)c2nc(CNc3ccc(C(=O)NC(CC(=O)O)C(=O)O)cc3)cnc2n1 (configuration not stated)
inactive: dose: 6.25 mg/kg/injection, schedule: Q01DX001 (ip), vehicle: saline 101 % of control | dose: 12.5 mg/kg/injection, schedule: Q01DX001 (ip), vehicle: saline 98 % of control | dose: 25.0 mg/kg/injection, schedule: Q01DX001 (ip), vehicle: saline 107 % of control | [9] 104 % of control | [10] 104 % of control | [11] 117 % of control

CCOC(=O)c1cc2c3n(c1=O)CCCC3C(c1ccccn1)OC2=O (configuration not stated)
inactive: [12] 100 % of control | [13] 107 % of control | [14] 102 % of control

CSc1ncnc2nn(C3OC(CO)C(O)C3O)cc12 (configuration not stated)
inactive: dose: 12.5 mg/kg/injection, schedule: Q01DX005 (ip), vehicle: water 103 % of control | dose: 25.0 mg/kg/injection, schedule: Q01DX005 (ip), vehicle: water 96 % of control | dose: 50.0 mg/kg/injection, schedule: Q01DX005 (ip), vehicle: water 103 % of control | dose: 100.0 mg/kg/injection, schedule: Q01DX005 (ip), vehicle: water 107 % of control | dose: 200.0 mg/kg/injection, schedule: Q01DX005 (ip), vehicle: water 100 % of control

CCN(CCNc1ccc(C)c2sc3cc(Cl)ccc3c(=O)c12)CC(C)O (configuration not stated)
inactive: [9] 94 % of control | [10] 88 % of control | [12] 94 % of control | [11] 94 % of control | [13] 94 % of control | dose: 400.0 mg/kg/injection, schedule: Q01DX001 (ip), vehicle: saline 96 % of control | [14] 102 % of control

O=C(NCCF)NC1CCSc2ccccc21 (configuration not stated)
inactive: dose: 75.0 mg/kg/injection, schedule: Q01DX001 (ip), vehicle: other 101 % of control | dose: 150.0 mg/kg/injection, schedule: Q01DX001 (ip), vehicle: other 103 % of control

C#CC1(c2ccccc2)OCCO1
inactive: dose: 12.5 mg/kg/injection, schedule: Q01DX009 (ip), vehicle: saline with Tween-80 97 % of control | [6] 97 % of control | [7] 94 % of control

C/C(=N/O)c1cc(CN(C)C)oc1C
inactive: [7] 92 % of control | [5] 113 % of control | [8] 90 % of control | [15] 101 % of control | [2] 91 % of control

CCCCCC(CN(C)C)C(/C=C/c1ccccc1)OC(=O)c1ccc([N+](=O)[O-])cc1 (configuration not stated)
inactive: [8] 97 % of control | [1] 90 % of control | [2] 100 % of control | [3] 105 % of control | [4] 106 % of control

O=C(C1CC1)N1CCC(O)(c2ccccc2)CC1
inactive: [16] 97 % of control | [17] 93 % of control | [18] 93 % of control

CCOC(=O)C/C(C)=C/c1ccccc1 (tested in a mixture with another compound)
inactive: [5] 95 % of control | [16] 98 % of control | [15] 87 % of control | [17] 90 % of control | dose: 400.0 mg/kg/injection, schedule: Q01DX001 (ip), vehicle: saline with Tween-80 94 % of control | [18] 110 % of control

CC1=NN(c2ccccc2)C(=O)C1(Br)Br
inactive: [6] 96 % of control | [7] 98 % of control

CN(C)C(=O)Nc1ccc(Br)cc1
inactive: [16] 86 % of control | [17] 93 % of control | [18] 93 % of control

Source: PubChem BioAssay AID256 (DTP/NCI, 2004)
